The values below come from patent publication US4232155A, “Purine compounds” (Bristol-Myers Company, priority 1979, dated 1980).

Converted amounts (≈) assume the structure as drawn. A value given as a limit tells only on which side of the number the result lay.

The test system of one data set is guinea pig. In words: In vivo bronchodilator and hypotensive activity (intratracheal pressure and arterial blood pressure in anesthetized guinea pig). The following applies: intravenous; for ABP ED20 (dose which reduces arterial blood pressure by 20%): hypotensive activity; for ED50: Cavia porcellus, bronchodilator activity, read-out: ITP ED50 (dose resulting in a 50% decrease in intratracheal pressure); for Ratio ABP/ITP (hypotensive ED20/bronchodilating ED50): separation of bronchodilator from hypotensive effect. The protocol: The trachea of anesthetized guinea pig was cannulated and the ITP recorded on a polygraph under artificial ventilation. Arterial blood pressure (ABP; reflecting hypotensive activity) was also measured during the experiment. Either intravenous or intraduodenal routes of administration are used. […] The ratio of hypotensive ED20 /brochodilating ED50 reflects an assessment of the separation of desirable brochodilator activity from undesirable cardiovascular (hypotensive) effect in the compounds.

The subject of data set [1] is Tracheal chains of guinea pig. In words: In vitro bronchodilator activity, relaxation of tracheal chains (Magnus method). The following applies: Cavia porcellus, relative to 0.1 mcg./ml. isoproterenol, read-out: EC50 (concentration producing a relaxation which is 50% of the maximum response to 0.1 mcg./ml. of isoproterenol). The procedure:
Tracheal chains of guinea pig were prepared by the method of A. Akcasu, Arch. Int. […] The response to each test compound was recorded by the Magnus method and expressed as a percentage of the maximum response obtained with 0.1 mcg./ml. of isoproterenol prior to each experiment.

Take `Cn1c(=O)c2[nH]cnc2n(C)c1=O` [Aminophylline, reference compound]: the “ABP ED20 (dose which reduces arterial blood pressure by 20%)” value with guinea pig amounted to 1.4 mg/kg.
By ED50 is commonly meant the dose that gives a 50% effect, or the effect in half of the subjects. `CCCNc1nc(N)c2ncn(C3C=CCCC3)c2n1` (centres unmarked) [Example 1, 9-(2-Cyclohexenyl)-2-n-propylamino-9H-adenine]: in the data set with guinea pig, the ED50 was 1.4 mg/kg, the “ABP ED20 (dose which reduces arterial blood pressure by 20%)” value was > 3 mg/kg and the “Ratio ABP/ITP (hypotensive ED20/bronchodilating ED50)” value was > 2.1. For the same compound, in data set [1], the EC50 worked out at 0.47 µg/mL (≈ 1.73 µM).
As to `Nc1nc(NC2CCCCC2)nc2c1ncn2C1C=CCCC1` (centres unmarked) [Example 2, 9-(2-Cyclohexenyl)-2-cyclohexylamino-9H-adenine], in the data set on guinea pig, the ED50 is > 3 mg/kg, the “ABP ED20 (dose which reduces arterial blood pressure by 20%)” value was 2.4 mg/kg and the “Ratio ABP/ITP (hypotensive ED20/bronchodilating ED50)” value was < 0.8. Further, in data set [1], the EC50 amounted to 0.24 µg/mL (≈ 0.768 µM).
For `CCCNc1nc(N)c2ncn(C3CCCCC3)c2n1` [Example 3, 9-Cyclohexyl-2-n-propylamino-9H-adenine], in that order: 0.49 mg/kg, 2.8 mg/kg, 5.7 and 0.75 µg/mL (≈ 2.73 µM).
For `Nc1nc(NC2CCCCC2)nc2c1ncn2C1CCCCC1` [Example 4, 9-Cyclohexyl-2-cyclohexylamino-9H-adenine], in that order: 1.5 mg/kg, > 3 mg/kg, > 2 and 0.21 µg/mL (≈ 0.668 µM).
